Assay results published in ChEMBL document CHEMBL1201862, “PubChem BioAssay data set” (2004).
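Each compound was tested at five concentrations against cells in 96-well plates for 48 hours. The concentration for 50% growth inhibition is given as GI50.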 The source made the active and inactive calls. Rule as the data show it: active = GI50 up to about 1.1 µM and inactive = higher.

Experiments:
Assay in all cases: NCI-60 cell line screen, 48 h
EKVX = test system: EKVX
TK-10 = test system: TK-10
RPMI-8226 = test system: RPMI-8226
HCC 2998 = test system: HCC 2998
LOX IMVI = test system: LOX IMVI
OVCAR-5 = test system: OVCAR-5
HL-60 = test system: HL-60
OVCAR-8 = test system: OVCAR-8
UACC-62 = test system: UACC-62
NCI-H23 = test system: NCI-H23
786-0 = test system: 786-0
HT-29 = test system: HT-29
IGROV-1 = test system: IGROV-1
CAKI-1 = test system: CAKI-1
OVCAR-3 = test system: OVCAR-3
SK-OV-3 = test system: SK-OV-3
HOP-62 = test system: HOP-62
KM12 = test system: KM12
T47D = test system: T47D

## COc1ccc(/C=C/c2nnc(S)[nH]2)cc1
EKVX
  GI50: > 100 µM (inactive)
TK-10
  GI50: > 100 µM (inactive)
RPMI-8226
  GI50: > 100 µM (inactive)
HCC 2998
  GI50: > 100 µM (inactive)
LOX IMVI
  GI50: > 100 µM (inactive)
OVCAR-5
  GI50: > 100 µM (inactive)
HL-60
  GI50: > 100 µM (inactive)
OVCAR-8
  GI50: > 100 µM (inactive)
UACC-62
  GI50: > 100 µM (inactive)
NCI-H23
  GI50: > 100 µM (inactive)
786-0
  GI50: > 100 µM (inactive)
HT-29
  GI50: > 100 µM (inactive)
IGROV-1
  GI50: > 100 µM (inactive)
CAKI-1
  GI50: > 100 µM (inactive)
OVCAR-3
  GI50: > 100 µM (inactive)

## C#CC[N+](C)(CC#C)CC#C
EKVX
  GI50: > 100 µM (inactive)
TK-10
  GI50: > 100 µM (inactive)
RPMI-8226
  GI50: > 100 µM (inactive)
HCC 2998
  GI50: > 100 µM (inactive)
LOX IMVI
  GI50: > 100 µM (inactive)
OVCAR-5
  GI50: > 100 µM (inactive)
HL-60
  GI50: > 100 µM (inactive)
OVCAR-8
  GI50: > 100 µM (inactive)
UACC-62
  GI50: > 100 µM (inactive)
NCI-H23
  GI50: > 100 µM (inactive)
SK-OV-3
  GI50: > 100 µM (inactive)
786-0
  GI50: > 100 µM (inactive)
HT-29
  GI50: > 100 µM (inactive)
HOP-62
  GI50: > 100 µM (inactive)
IGROV-1
  GI50: > 100 µM (inactive)
CAKI-1
  GI50: > 100 µM (inactive)
OVCAR-3
  GI50: > 100 µM (inactive)
KM12
  GI50: > 100 µM (inactive)

## Cc1nc(C(N)=S)sc1C(=O)/C=C/c1c(O)ccc2ccccc12
EKVX
  GI50: > 100 µM (inactive)
TK-10
  GI50: > 100 µM (inactive)
RPMI-8226
  GI50: 29.4 µM (inactive)
HCC 2998
  GI50: > 100 µM (inactive)
LOX IMVI
  GI50: 26 µM (inactive)
OVCAR-5
  GI50: > 100 µM (inactive)
HL-60
  GI50: 22.1 µM (inactive)
OVCAR-8
  GI50: 68.5 µM (inactive)
UACC-62
  GI50: 29.6 µM (inactive)
NCI-H23
  GI50: > 67.5 µM (inactive)
SK-OV-3
  GI50: > 100 µM (inactive)
786-0
  GI50: > 74.3 µM (inactive)
HT-29
  GI50: > 100 µM (inactive)
HOP-62
  GI50: > 100 µM (inactive)
IGROV-1
  GI50: > 100 µM (inactive)
CAKI-1
  GI50: > 87.5 µM (inactive)
OVCAR-3
  GI50: 36.6 µM (inactive)
KM12
  GI50: 31.3 µM (inactive)

## Cc1ccc(C2=C(c3ccccc3)C(O)(c3ccc(C)cc3)C(c3ccccc3)=C2c2ccc(C)cc2)cc1
EKVX
  GI50: 72.1 µM (inactive)
TK-10
  GI50: > 100 µM (inactive)
RPMI-8226
  GI50: 54.6 µM (inactive)
HCC 2998
  GI50: > 100 µM (inactive)
LOX IMVI
  GI50: > 100 µM (inactive)
OVCAR-5
  GI50: > 100 µM (inactive)
HL-60
  GI50: 14.4 µM (inactive)
OVCAR-8
  GI50: > 100 µM (inactive)
UACC-62
  GI50: > 100 µM (inactive)
NCI-H23
  GI50: 1.91 µM (inactive)
SK-OV-3
  GI50: > 100 µM (inactive)
786-0
  GI50: > 100 µM (inactive)
HOP-62
  GI50: > 100 µM (inactive)
IGROV-1
  GI50: > 100 µM (inactive)
CAKI-1
  GI50: 99.5 µM (inactive)
OVCAR-3
  GI50: 69 µM (inactive)
KM12
  GI50: > 100 µM (inactive)

## C/C(=C\COP(=O)(O)OP(=O)(O)O)CCCOCc1ccccc1
T47D
  GI50: > 100 µM (inactive)
EKVX
  GI50: > 100 µM (inactive)
TK-10
  GI50: > 100 µM (inactive)
RPMI-8226
  GI50: 0.207 µM (active)
LOX IMVI
  GI50: > 100 µM (inactive)
OVCAR-5
  GI50: > 100 µM (inactive)
HL-60
  GI50: 61.7 µM (inactive)
OVCAR-8
  GI50: > 100 µM (inactive)
UACC-62
  GI50: > 100 µM (inactive)
NCI-H23
  GI50: > 100 µM (inactive)
SK-OV-3
  GI50: > 100 µM (inactive)
786-0
  GI50: > 100 µM (inactive)
HT-29
  GI50: > 100 µM (inactive)
HOP-62
  GI50: > 100 µM (inactive)
IGROV-1
  GI50: > 100 µM (inactive)
CAKI-1
  GI50: > 100 µM (inactive)
OVCAR-3
  GI50: > 100 µM (inactive)
KM12
  GI50: > 100 µM (inactive)

## COc1cc(C=O)c(-c2cc(OC)c(OC)cc2C=O)cc1OC
EKVX
  GI50: > 100 µM (inactive)
TK-10
  GI50: > 100 µM (inactive)
RPMI-8226
  GI50: 36.9 µM (inactive)
HCC 2998
  GI50: > 100 µM (inactive)
LOX IMVI
  GI50: 13.7 µM (inactive)
OVCAR-5
  GI50: > 100 µM (inactive)
HL-60
  GI50: 36.8 µM (inactive)
OVCAR-8
  GI50: 91.4 µM (inactive)
UACC-62
  GI50: > 100 µM (inactive)
NCI-H23
  GI50: 52.6 µM (inactive)
SK-OV-3
  GI50: > 100 µM (inactive)
786-0
  GI50: > 100 µM (inactive)
HT-29
  GI50: 76.2 µM (inactive)
HOP-62
  GI50: > 100 µM (inactive)
IGROV-1
  GI50: > 100 µM (inactive)
CAKI-1
  GI50: > 100 µM (inactive)
OVCAR-3
  GI50: > 100 µM (inactive)
KM12
  GI50: > 100 µM (inactive)

## O=C1[C@H]2ON(c3ccccc3)C(c3ccccc3F)[C@H]2C(=O)N1c1ccc(Cc2ccc(N3C(=O)[C@@H]4ON(c5ccccc5)C(c5ccccc5F)[C@@H]4C3=O)cc2)cc1 (some centres not stated)
RPMI-8226
  GI50: > 100 µM (inactive)
HCC 2998
  GI50: > 100 µM (inactive)
LOX IMVI
  GI50: 63.8 µM (inactive)
OVCAR-5
  GI50: > 100 µM (inactive)
HL-60
  GI50: > 100 µM (inactive)
UACC-62
  GI50: > 100 µM (inactive)
NCI-H23
  GI50: > 100 µM (inactive)
SK-OV-3
  GI50: > 100 µM (inactive)
786-0
  GI50: > 100 µM (inactive)
HT-29
  GI50: > 100 µM (inactive)
HOP-62
  GI50: > 100 µM (inactive)
IGROV-1
  GI50: > 100 µM (inactive)
CAKI-1
  GI50: > 100 µM (inactive)
OVCAR-3
  GI50: > 100 µM (inactive)
KM12
  GI50: > 100 µM (inactive)

## NC1=NN(c2ccccc2)C(=O)C1C(=O)C(=O)Nc1cccc(C(F)(F)F)c1 (configuration not stated)
EKVX
  GI50: > 100 µM (inactive)
TK-10
  GI50: > 100 µM (inactive)
RPMI-8226
  GI50: > 100 µM (inactive)
HCC 2998
  GI50: > 100 µM (inactive)
LOX IMVI
  GI50: > 100 µM (inactive)
OVCAR-5
  GI50: > 100 µM (inactive)
HL-60
  GI50: 89.3 µM (inactive)
OVCAR-8
  GI50: > 100 µM (inactive)
UACC-62
  GI50: > 100 µM (inactive)
NCI-H23
  GI50: > 100 µM (inactive)
SK-OV-3
  GI50: > 100 µM (inactive)
786-0
  GI50: > 100 µM (inactive)
HT-29
  GI50: > 100 µM (inactive)
HOP-62
  GI50: > 100 µM (inactive)
IGROV-1
  GI50: > 100 µM (inactive)
CAKI-1
  GI50: > 100 µM (inactive)
OVCAR-3
  GI50: > 100 µM (inactive)
KM12
  GI50: > 100 µM (inactive)
